Assay results from patent US20040248275A1, “Engineered bacterial aggregates” (priority 2003, published 2004).

Key:
Type in all cases: cell-based
[1] = tested on: Corynebacterium aquaticum; experiment: QUAT susceptibility of single-species aggregates (survivors); conditions: for No. of survivors after 20 minutes following treatment of 100 μm aggregate with 1 mM QUAT: 100 μm single species aggregate; for No. of survivors (%) at 20 min: 1 mM QUAT
Protocol: (§1) In another version of the present invention, one would test a biocide with the aggregates described above in the following manner: Volumes (1-10 mL) of customized aggregate suspensions, formed as described earlier, are held in suitable containers (microtitre plate well, mini-centrifuge tubes, pyrex glass test-tubes) to which are added appropriate concentrations of the test biocide (volume 5-25% of suspension volume). After a chosen contact times have elapsed (1-30 minutes) samples are removed to a neutralizer solution appropriate to the chosen biocide containing the antagonistic sugar (50 mM) for the chosen lectin (See Table 1). The aggregates disperse into single cell suspension that upon which simple plate count estimates of the viable surviving cell number may be conducted. Control experiments are conducted on disaggregated populations created by resuspending the customized aggregates in the antagonistic sugar (50 mM) prior to the addition of biocide.
(§2) Single species (Pseudomonas sp. 2881, Aeromonas hydrophila and Corynebacterium aquaticum) aggregates of 10, 50 and 100 μm in size were constructed and treated with different concentrations of three simple quaternary ammonium compounds (n-alkyl dimethyl benzyl ammonium chloride where n=12, 14 or 16).

Aeromonas hydrophila = experiment: as above; conditions: for No. of survivors after 20 minutes following treatment of 100 μm aggregate with 1 mM QUAT: 100 μm single species aggregate; for No. of survivors (%) at 20 min: 1 mM QUAT
Protocol: as §1, §2

Pseudomonas sp. 2881 [2] = experiment: as above; conditions: for No. of survivors after 20 minutes following treatment of 100 μm aggregate with 1 mM QUAT: 100 μm single species aggregate; for No. of survivors (%) at 20 min: 1 mM QUAT
Protocol: as §1, §2

A. hydrophila = experiment: QUAT susceptibility in structured multi-species aggregates (survivors); conditions: 1 mM QUAT
Protocol: (§3) In another method of the present invention, one would form a multilamellar spherical aggregate in the following manner: In order to construct lamellar aggregates, aggregates of defined size should be prepared for the ‘core’ under XS (see i or ii above). Cores, either homogeneous or heterogeneous, are harvested by centrifugation (3000 g 10 minutes) and resuspended in the original volume of phosphate buffered saline (pH 7.1). Mix equal parts of the harvested core aggregates and a washed suspension of the ‘coating organism’ (1×10^7-5×10^8 cells/mL).
as §1
(§4) Binary lamellar aggregates were constructed for all combinations of the three test species. Core aggregate size was 50 microns diameter. Cores were coated with an equal number of the partner species. Each test species served as both core-aggregate and shell in these experiments. […] When the cells were aggregated prior to exposure to QUATs, then it became apparent that there was not only a protection afforded by aggregation but that the relative location of one species to the other affected the inactivation. Selected data is presented that compares inactivation of unordered (homogeneous) aggregates of two different species with ones where each of the partner organisms serves as either the core or shell to the other.

Pseudomonas sp. 2881 [3] = experiment: as above; conditions: 1 mM QUAT
Protocol: as §3, §1, §4

C. aquaticum = experiment: as above; conditions: 1 mM QUAT
Protocol: as §3, §1, §4

[4] = single-species aggregate Approx. 10 μm
[5] = single-species aggregate Approx. 50 μm
[6] = single-species aggregate Approx. 100 μm
[7] = 100 μm A. hydrophila - C. aquaticum aggregate, Unordered mixture
[8] = 100 μm Pseudomonas sp. 2881 - A. hydrophila aggregate, Unordered mixture
[9] = 100 μm aggregate, A. hydrophila shell, C. aquaticum core
[10] = 100 μm aggregate, A. hydrophila shell, Pseudomonas sp. 2881 core
[11] = 100 μm aggregate, C. aquaticum shell, A. hydrophila core
[12] = 100 μm aggregate, Pseudomonas sp. 2881 shell, A. hydrophila core
[13] = 100 μm Pseudomonas sp. 2881 - C. aquaticum aggregate, Unordered mixture
[14] = 100 μm aggregate, C. aquaticum shell, Pseudomonas sp. 2881 core
[15] = 100 μm aggregate, Pseudomonas sp. 2881 shell, C. aquaticum core

## n-alkyl dimethyl benzyl ammonium chloride [C12 QUAT]
[1]
  No. of survivors after 20 minutes following treatment of 100 μm aggregate with 1 mM QUAT: 0.240
Aeromonas hydrophila
  No. of survivors after 20 minutes following treatment of 100 μm aggregate with 1 mM QUAT: 0.635
Pseudomonas sp. 2881 [2]
  No. of survivors after 20 minutes following treatment of 100 μm aggregate with 1 mM QUAT: 0.711

## n-alkyl dimethyl benzyl ammonium chloride [C14 QUAT]
[1]; No aggregate (free cells)
  No. of survivors (%) at 20 min: <0.00001%
[1]; [4]
  No. of survivors (%) at 20 min: 0.0002%
[1]; [5]
  No. of survivors (%) at 20 min: 0.0027%
[1]; [6]
  No. of survivors (%) at 20 min: 0.0829%
[1]
  No. of survivors after 20 minutes following treatment of 100 μm aggregate with 1 mM QUAT: 0.083
Aeromonas hydrophila; No aggregate (free cells)
  No. of survivors (%) at 20 min: <0.00001%
Aeromonas hydrophila; [4]
  No. of survivors (%) at 20 min: 0.0041%
Aeromonas hydrophila; [5]
  No. of survivors (%) at 20 min: 0.0282%
Aeromonas hydrophila; [6]
  No. of survivors (%) at 20 min: 0.4197%
Aeromonas hydrophila
  No. of survivors after 20 minutes following treatment of 100 μm aggregate with 1 mM QUAT: 0.420
Pseudomonas sp. 2881 [2]; No aggregate (free cells)
  No. of survivors (%) at 20 min: 0.001%
Pseudomonas sp. 2881 [2]; [4]
  No. of survivors (%) at 20 min: 0.021%
Pseudomonas sp. 2881 [2]; [5]
  No. of survivors (%) at 20 min: 0.0598%
Pseudomonas sp. 2881 [2]; [6]
  No. of survivors (%) at 20 min: 0.5942%
Pseudomonas sp. 2881 [2]
  No. of survivors after 20 minutes following treatment of 100 μm aggregate with 1 mM QUAT: 0.594
A. hydrophila; [7]
  % No. survivors after 20 minutes: 0.172%
A. hydrophila; [8]
  % No. survivors after 20 minutes: 0.112%
A. hydrophila; [9]
  % No. survivors after 20 minutes: 0.131%
A. hydrophila; [10]
  % No. survivors after 20 minutes: 0.0065%
A. hydrophila; [11]
  % No. survivors after 20 minutes: 0.365%
A. hydrophila; [12]
  % No. survivors after 20 minutes: 0.176%
Pseudomonas sp. 2881 [3]; [8]
  % No. survivors after 20 minutes: 0.241%
Pseudomonas sp. 2881 [3]; [13]
  % No. survivors after 20 minutes: 0.264%
Pseudomonas sp. 2881 [3]; [10]
  % No. survivors after 20 minutes: 0.319%
Pseudomonas sp. 2881 [3]; [14]
  % No. survivors after 20 minutes: 0.425%
Pseudomonas sp. 2881 [3]; [12]
  % No. survivors after 20 minutes: 0.147%
Pseudomonas sp. 2881 [3]; [15]
  % No. survivors after 20 minutes: 0.219%
C. aquaticum; [7]
  % No. survivors after 20 minutes: 0.0364%
C. aquaticum; [13]
  % No. survivors after 20 minutes: 0.0412%
C. aquaticum; [9]
  % No. survivors after 20 minutes: 0.0457%
C. aquaticum; [11]
  % No. survivors after 20 minutes: >0.001%
C. aquaticum; [14]
  % No. survivors after 20 minutes: >0.001%
C. aquaticum; [15]
  % No. survivors after 20 minutes: 0.0698%

## n-alkyl dimethyl benzyl ammonium chloride [C16 QUAT]
[1]
  No. of survivors after 20 minutes following treatment of 100 μm aggregate with 1 mM QUAT: 0.266
Aeromonas hydrophila
  No. of survivors after 20 minutes following treatment of 100 μm aggregate with 1 mM QUAT: 0.594
Pseudomonas sp. 2881 [2]
  No. of survivors after 20 minutes following treatment of 100 μm aggregate with 1 mM QUAT: 0.724
